Source: patent publication US12398154B2, “Azaquinazoline pan-KRas inhibitors” (Mirati Therapeutics, Inc., priority 2020, dated 2025)

Columns and labels:
[1] = target: T1, KRas G13D (Homo sapiens, UniProt P01116, G13D); assay: KRas binding assay (TR-FRET displacement);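 note: One-hour room temperature incubation before TR-FRET reading, IC50 from a four-parameter curve fit to percent-of-control data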
T1 construct: Biotinylated KRas (corresponding to amino acids 1-169, produced at Accelegan Inc.); biotin (biotinylated); purchased Accelegan Inc
T1 sequence (P01116 1-169 isoform P01116-2 G13D): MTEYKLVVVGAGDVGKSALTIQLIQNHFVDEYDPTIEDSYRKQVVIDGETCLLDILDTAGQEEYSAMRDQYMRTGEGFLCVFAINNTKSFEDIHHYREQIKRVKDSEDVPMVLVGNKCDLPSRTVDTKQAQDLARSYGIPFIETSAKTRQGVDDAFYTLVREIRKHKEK
Description: (§2) The ability of a compound to bind to KRas was measured using a TR-FRET displacement assay. […] After a 60-minute incubation at room temperature, the reaction was measured using a BMG LABTECH CLARIO star Plus via TR-FRET. […] The POC values were fit to a 4-parameter IC50 equation and the IC50 value reported.

[2] = target: T2, KRas Q61H (Homo sapiens, UniProt P01116, Q61H); assay: KRas binding assay (TR-FRET displacement);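 note: TR-FRET signal read after one hour at room temperature, IC50 derived by four-parameter fitting of percent-of-control values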
T2 construct: Biotinylated KRas (corresponding to amino acids 1-169, produced at Accelegan Inc.); biotin (biotinylated); purchased Accelegan Inc
T2 sequence (P01116 1-169 isoform P01116-2 Q61H): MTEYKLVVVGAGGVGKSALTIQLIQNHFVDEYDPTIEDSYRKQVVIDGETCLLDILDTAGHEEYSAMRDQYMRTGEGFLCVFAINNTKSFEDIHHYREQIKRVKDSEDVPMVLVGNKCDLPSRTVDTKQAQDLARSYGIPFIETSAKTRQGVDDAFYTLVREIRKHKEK
Description: as §2

[3] = tested on: phospho-ERK in A549 (G12S) cells; assay: Inhibition of KRas-mediated phosphorylation of ERK (in-cell western); format: cell-based; details: Homo sapiens, 3 hours compound, phospho-ERK normalized to GAPDH
How it was run: (§1)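 Cells were treated with compound for 3 hours (0.5% DMSO final), then fixed with formaldehyde and permeabilized with ice-cold methanol. Phospho-ERK (Thr202/Tyr204) was detected by antibody and normalized to GAPDH per well, expressed as percent of DMSO control, and IC50 obtained by 4-parameter fit.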

[4] = tested on: phospho-ERK in AsPC-1 (G12D) cells; assay: as above; format: cell-based; details: Homo sapiens, ASPC1, 3 h, 3 hours compound, phospho-ERK normalized to GAPDH
How it was run: as §1

[5] = tested on: phospho-ERK in HCT116 (G13D) cells; assay: as above; format: cell-based; details: Homo sapiens, HCT-116, 3 hours compound, phospho-ERK normalized to GAPDH
How it was run: as §1

[6] = tested on: phospho-ERK in MKN1 (WTdep) cells; assay: as above; format: cell-based; details: Homo sapiens, MKN-1, 3 hours compound, phospho-ERK normalized to GAPDH
How it was run: as §1

[7] = tested on: phospho-ERK in NCI-H358 (G12C) cells; assay: as above; format: cell-based; details: Homo sapiens, 3 hours compound, phospho-ERK normalized to GAPDH
How it was run: as §1

[8] = tested on: phospho-ERK in NCI-H460 (Q61H) cells; assay: as above; format: cell-based; details: Homo sapiens, NCI-H460, 3 h, 3 hours compound, phospho-ERK normalized to GAPDH
How it was run: as §1

[9] = tested on: phospho-ERK in NCI-H727 (G12V) cells; assay: as above; format: cell-based; details: Homo sapiens, NCI-H727, 3 h, 3 hours compound, phospho-ERK normalized to GAPDH
How it was run: as §1

[10] = tested on: phospho-ERK in PSN-1 (G12R) cells; assay: as above; format: cell-based; details: Homo sapiens, PSN1, 3 hours compound, phospho-ERK normalized to GAPDH
How it was run: as §1

[11] = target: KRas G12D (Homo sapiens, UniProt P01116, G12D); assay: biochemical;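 note: TR-FRET displacement binding assay on KRas, read after a one-hour incubation at room temperature, IC50 fitted from percent-of-control values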
Chain of KRas G12D (P01116 1-169 isoform P01116-2 G12D): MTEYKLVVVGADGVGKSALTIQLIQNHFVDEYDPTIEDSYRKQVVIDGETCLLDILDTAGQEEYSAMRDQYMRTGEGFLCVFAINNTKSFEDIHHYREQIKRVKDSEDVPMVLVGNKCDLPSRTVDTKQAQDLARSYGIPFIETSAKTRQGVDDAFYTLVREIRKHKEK
Description: as §2

[12] = target: KRas G12V (Homo sapiens, UniProt P01116, G12V); assay: biochemical;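 note: KRas binding measured by TR-FRET displacement at room temperature, IC50 fitted from percent of control values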
Chain of KRas G12V (P01116 1-169 isoform P01116-2 G12V): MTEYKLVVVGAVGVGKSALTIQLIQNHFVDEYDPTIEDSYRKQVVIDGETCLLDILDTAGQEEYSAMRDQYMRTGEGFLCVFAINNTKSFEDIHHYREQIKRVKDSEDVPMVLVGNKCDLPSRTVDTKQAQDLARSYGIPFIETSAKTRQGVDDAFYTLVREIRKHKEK
Description: as §2

[13] = target: KRas G12R (Homo sapiens, UniProt P01116, G12R); assay: biochemical;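 note: TR-FRET displacement assay of compound binding to KRas, read after one hour at room temperature, potency from a four-parameter fit of percent-of-control values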
Chain of KRas G12R (P01116 1-169 isoform P01116-2 G12R): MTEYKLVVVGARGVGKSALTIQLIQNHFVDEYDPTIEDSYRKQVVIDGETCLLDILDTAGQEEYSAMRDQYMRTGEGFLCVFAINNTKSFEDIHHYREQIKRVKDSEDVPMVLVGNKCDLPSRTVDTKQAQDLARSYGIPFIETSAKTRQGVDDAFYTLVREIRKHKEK
Description: as §2

[14] = target: KRas G12A (Homo sapiens, UniProt P01116, G12A); assay: biochemical;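 note: binding to KRas measured by TR-FRET displacement after one hour at room temperature, IC50 from a four-parameter fit of percent-of-control values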
Chain of KRas G12A (P01116 1-169 isoform P01116-2 G12A): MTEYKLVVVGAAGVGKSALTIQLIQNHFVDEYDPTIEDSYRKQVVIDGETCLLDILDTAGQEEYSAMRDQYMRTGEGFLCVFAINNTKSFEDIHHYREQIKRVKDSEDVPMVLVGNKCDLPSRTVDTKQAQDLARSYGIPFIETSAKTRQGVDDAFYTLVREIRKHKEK
Description: as §2

[15] = target: KRas G12S (Homo sapiens, UniProt P01116, G12S); assay: biochemical;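 note: TR-FRET displacement binding to KRas, read after one hour incubation at room temperature, IC50 from four-parameter fit of percent of control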
Chain of KRas G12S (P01116 1-169 isoform P01116-2 G12S): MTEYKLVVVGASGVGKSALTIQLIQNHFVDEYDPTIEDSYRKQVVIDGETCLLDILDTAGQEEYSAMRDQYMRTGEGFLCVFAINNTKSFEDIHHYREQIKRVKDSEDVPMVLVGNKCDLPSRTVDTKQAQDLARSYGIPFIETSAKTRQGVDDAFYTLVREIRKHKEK
Description: as §2

[16] = target: KRas G12C (Homo sapiens, UniProt P01116, G12C); assay: biochemical;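 note: binding to KRas assessed by TR-FRET displacement after one hour incubation at room temperature, potency fitted from percent-of-control values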
Chain of KRas G12C (P01116 1-169 isoform P01116-2 G12C): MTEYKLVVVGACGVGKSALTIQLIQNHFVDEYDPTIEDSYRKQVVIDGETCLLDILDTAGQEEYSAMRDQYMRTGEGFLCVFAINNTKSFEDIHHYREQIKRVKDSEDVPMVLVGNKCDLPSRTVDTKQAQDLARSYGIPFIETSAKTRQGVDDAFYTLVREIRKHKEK
Description: as §2

[17] = target: KRas WT (Homo sapiens, UniProt P01116); assay: biochemical;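 note: binding to KRas read as TR-FRET displacement after a one-hour room-temperature incubation, IC50 derived from percent-of-control values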
Chain of KRas WT (P01116 1-169 isoform P01116-2): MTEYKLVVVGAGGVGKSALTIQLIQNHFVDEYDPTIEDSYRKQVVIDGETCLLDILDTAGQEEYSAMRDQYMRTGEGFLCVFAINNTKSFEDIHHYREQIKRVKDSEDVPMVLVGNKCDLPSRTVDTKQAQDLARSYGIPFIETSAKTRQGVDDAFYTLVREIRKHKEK
Description: as §2

[18] = tested on: pERK in ASPC1 cells; assay: Inhibition of KRas phosphorylation of ERK (Cisbio HTRF pERK assay); details: Homo sapiens, ASPC1, read-out: Inhibition (HTRF IC50) of KRas-mediated Phosphorylation of ERK, AsPC-1
[19] = tested on: pERK in H727 cells; assay: as above; details: Homo sapiens, NCI-H727, read-out: Inhibition (HTRF IC50) of KRas-mediated Phosphorylation of ERK, H727
[20] = tested on: pERK in H460 cells; assay: as above; details: Homo sapiens, NCI-H460, read-out: Inhibition (HTRF IC50) of KRas-mediated Phosphorylation of ERK, H460
Description: To harvest cells from flask using 0.05% Trypsin/EDTA solution. Add 10 mL of media to stop trypsinizing. Pipette the cells into a conical bottom 50 mL centrifuge tube and centrifuge 5 min×1000 rpm. • 2. Re-suspend the cell pellet in media, take a cell count, and then adjust the cell density using fresh media. • 3. Seed 6,000 cells into cell culture plate with 50 μL media. […] Incubate cell plate overnight in a 37° C., 5% CO2 incubator. • Compound titrations • 1. Use Tecan to complete the compound addition. Compounds start from 10 uM top, 3-fold dilution, and 10 doses. The final DMSO concentration is 0.8%. Dispensed 0.2 uM Trametinib as Min control. • 2. Incubate cell plate for 3 hrs in the incubator. • Detection with cisbio pERK HTRF kit • 1. […] At the end of the compound treatment, flick-off the media. • 3. Add 35 μL of lysis buffer per well using a Multidrop Combi. Then place on a plate agitator shaking at 300 rpm at 4° C. for 40 mins. • 4. Make up the HTRF antibody buffer. For each assay plate, mix 50 μL of d2-conjugate antibody with 950 μL of detection buffer. Similarly, mix 50 μL of Cryptate antibody with 950 μL of detection buffer. Then mix the two diluted antibodies together. • 5. Dispense 3.4 μL the antibody buffer to wells of an empty assay plate. Seal the plate and centrifuge plate 30 sec×1000 rpm. • 6. At the end of the 4° C. lysis, centrifuge the lysate plates 3 mins×1500 rpm. • 7. Use the Bravo to transfer 13.6 μL of lysate from cell culture plate to assay plate.
Then incubate assay plate for 2 hrs at room temperature. […] At the end of incubation, read plate on the Envision after centrifuging plate 30 sec× • 1000 rpm.

[21] = tested on: pERK in HCT116 cells; assay: as above; details: Homo sapiens, HCT-116, read-out: Inhibition (HTRF IC50) of KRas-mediated Phosphorylation of ERK, HCT116

Structure (SMILES) | IC50 [1] [nM] | IC50 [2] [nM] | IC50 [11] [nM] | IC50 [12] [nM] | IC50 [13] [nM] | IC50 [14] [nM] | IC50 [15] [nM] | IC50 [16] [nM] | IC50 [18] [nM] | IC50 [19] [nM] | IC50 [20] [nM] | IC50 [21] [nM] | IC50 [3] [nM] | IC50 [4] [nM] | IC50 [5] [nM] | IC50 [6] [nM] | IC50 [7] [nM] | IC50 [8] [nM] | IC50 [9] [nM] | IC50 [10] [nM] | further results
CCc1c(F)ccc2cccc(-c3ncc4c(N5CCCC6(CNC(=O)C6)C5)nc(OC[C@@]56CCCN5C[C@H](F)C6)nc4c3F)c12 (stereo partly drawn) [Example 37, 7-(7-(8-ethyl-7-fluoronaphthalen-1-yl)-8-fluoro-2-(((2R,7aS)-2-fluorotetrahydro-1H-pyrrolizin-7a(5H)-yl)methoxy)pyrido[4,3-d]pyrimidin-4-yl)-2,7-diazaspiro[4.5]decan-3-one] | 88 | 88 | 41 | 57 | 93 | 52 | 63 | 56 |  |  |  |  | 8950 | 2210 | 4360 | 1670 | 1720 | ≥ 10000 | ≥ 10000 | ≥ 10000 | IC50 [17]: 68 nM
C#Cc1c(F)ccc2cccc(-c3ncc4c(N5CCC[C@@](C)(O)C5)nc(OC[C@@]56CCCN5C[C@H](F)C6)nc4c3F)c12 [Example 51, (R)-1-(7-(8-ethynyl-7-fluoronaphthalen-1-yl)-8-fluoro-2-(((2R,7aS)-2-fluorohexahydro-1H-pyrrolizin-7a-yl)methoxy)pyrido[4,3-d]pyrimidin-4-yl)-3-methylpiperidin-3-ol] | 36 | 50 | 21 | 35 | 69 | 36 | 38 | 35 |  |  |  |  | 2640 | 586 | 3720 | 873 | 715 | ≥ 10000 | 7230 | ≥ 10000 | IC50 [17]: 32 nM
CCc1c(F)ccc2cc(O)cc(-c3ncc4c(N5CC6CC(O)CC5C6)nc(OC[C@@]56CCCN5C[C@H](F)C6)nc4c3F)c12 (stereo partly drawn) [Example 58] |  |  | 6 | ≤ 2 | ≤ 2 |  |  |  | 75 | 45 | 69 | 179 | 455 | 24 | 1460 | 23 | 24 | 111 | 242 | 1310 | 
CCc1c(F)ccc2cc(O)cc(-c3ncc4c(NCc5cccnc5N)nc(OC[C@@]56CCCN5C[C@H](F)C6)nc4c3F)c12 [Example 136, 4-(4-(((2-aminopyridin-3-yl)methyl)amino)-8-fluoro-2-(((2R,7aS)-2-fluorohexahydro-1H-pyrrolizin-7a-yl)methoxy)pyrido[4,3-d]pyrimidin-7-yl)-5-ethyl-6-fluoronaphthalen-2-ol] |  |  | 3 | ≤ 2 | ≤ 2 |  |  |  | 318 | 52 | 83 | 243 | 19 | 351 | 631 | 7 | 4 | 75 | 181 | ≥ 10000 | 
C#Cc1c(F)ccc2cc(O)cc(-c3ncc4c(N5CCCC6(CC(=O)N6)C5)nc(OC[C@@]56CCCN5C[C@H](F)C6)nc4c3F)c12 (stereo partly drawn) [Example 148] |  |  | 3 | ≤ 2 | ≤ 2 |  |  |  | 59 | 110 | 132 | 2210 | 550 | 105 | ≥ 10000 | 76 | 15 | 68 | 260 | 3780 | 
C#Cc1c(F)ccc2cc(O)cc(-c3ncc4c(NCc5c[nH]c6ncccc56)nc(OC[C@@]56CCCN5C[C@H](F)C6)nc4c3F)c12 [Example 150, 4-(4-(((1H-pyrrolo[2,3-b]pyridin-3-yl)methyl)amino)-8-fluoro-2-(((2R,7aS)-2-fluorohexahydro-1H-pyrrolizin-7a-yl)methoxy)pyrido[4,3-d]pyrimidin-7-yl)-5-ethynyl-6-fluoronaphthalen-2-ol] |  |  | ≤ 2 | ≤ 2 | ≤ 2 |  |  |  | 66 | 12 | 167 | 115 | 45 | 435 | 996 | 13 | 4 | 362 | 626 | ≥ 10000 | 

Second part, led by results:

IC50 [1] [nM] | IC50 [2] [nM] | IC50 [11] [nM] | IC50 [12] [nM] | IC50 [13] [nM] | IC50 [14] [nM] | IC50 [15] [nM] | IC50 [16] [nM] | IC50 [18] [nM] | IC50 [19] [nM] | IC50 [20] [nM] | IC50 [21] [nM] | Structure (SMILES) | IC50 [3] [nM] | IC50 [4] [nM] | IC50 [5] [nM] | IC50 [6] [nM] | IC50 [7] [nM] | IC50 [8] [nM] | IC50 [9] [nM] | IC50 [10] [nM] | further results
≤ 2 | ≤ 2 | ≤ 2 | ≤ 2 | ≤ 2 | ≤ 2 | ≤ 2 | ≤ 2 |  |  |  |  | CCc1c(F)ccc2cc(O)cc(-c3ncc4c(N5CCC[C@@](C)(O)C5)nc(OCC56CCCN5CCC6)nc4c3F)c12 [Example 27] | 300 | 45 | 88 | 20 | 22 | 33 | 232 | 2920 | IC50 [17]: ≤ 2 nM
 |  | ≤ 2 | ≤ 2 | ≤ 2 |  |  |  | 126 | 250 | 336 | 1640 | CCc1c(F)ccc2cc(O)cc(-c3ncc4c(N5CCCn6nc(N)cc6C5)nc(OC[C@@]56CCCN5C[C@H](F)C6)nc4c3F)c12 [Example 61, 4-(4-(2-amino-7,8-dihydro-4H-pyrazolo[1,5-a][1,4]diazepin-5 (6H)-yl)-8-fluoro-2-(((2R,7aS)-2-fluorohexahydro-1H-pyrrolizin-7a-yl)methoxy)pyrido[4,3-d]pyrimidin-7-yl)-5-ethyl-6-fluoronaphthalen-2-ol] | 699 | 306 | 518 | 46 | 162 | 550 | 1110 | ≥ 10000 | 
 |  | ≤ 2 | ≤ 2 | 3 |  |  |  | 65 | 84 | 151 | 336 | CCc1c(F)ccc2cc(O)cc(-c3ncc4c(N5CCOCC(CO)C5)nc(OC[C@@]56CCCN5C[C@H](F)C6)nc4c3F)c12 (stereo partly drawn) [Example 74, 5-ethyl-6-fluoro-4-(8-fluoro-2-(((2R,7aS)-2-fluorotetrahydro-1H-pyrrolizin-7a(5H)-yl)methoxy)-4-(6-(hydroxymethyl)-1,4-oxazepan-4-yl)pyrido[4,3-d]pyrimidin-7-yl)naphthalen-2-ol] | 63 | 72 | 662 | 8 | 10 | 55 | 355 | ≥ 10000 | 
 |  | ≤ 2 | ≤ 2 | 3 |  |  |  | 92 | 400 | 327 | 607 | CCc1c(F)ccc2cc(O)cc(-c3ncc4c(N5CCCC6(CNC6=O)C5)nc(OC[C@@]56CCCN5C[C@H](F)C6)nc4c3F)c12 (stereo partly drawn) [Example 146] | 1060 | 22 | 1000 | 22 | 15 | 204 | ≥ 10000 | 2530 | 
